The experiment has as its target T1, human TLR8 (Homo sapiens, UniProt Q9NR97).
T1 construct: host or cells: HEK293 (HEK-Blue)
T1 sequence (Q9NR97 27-1041): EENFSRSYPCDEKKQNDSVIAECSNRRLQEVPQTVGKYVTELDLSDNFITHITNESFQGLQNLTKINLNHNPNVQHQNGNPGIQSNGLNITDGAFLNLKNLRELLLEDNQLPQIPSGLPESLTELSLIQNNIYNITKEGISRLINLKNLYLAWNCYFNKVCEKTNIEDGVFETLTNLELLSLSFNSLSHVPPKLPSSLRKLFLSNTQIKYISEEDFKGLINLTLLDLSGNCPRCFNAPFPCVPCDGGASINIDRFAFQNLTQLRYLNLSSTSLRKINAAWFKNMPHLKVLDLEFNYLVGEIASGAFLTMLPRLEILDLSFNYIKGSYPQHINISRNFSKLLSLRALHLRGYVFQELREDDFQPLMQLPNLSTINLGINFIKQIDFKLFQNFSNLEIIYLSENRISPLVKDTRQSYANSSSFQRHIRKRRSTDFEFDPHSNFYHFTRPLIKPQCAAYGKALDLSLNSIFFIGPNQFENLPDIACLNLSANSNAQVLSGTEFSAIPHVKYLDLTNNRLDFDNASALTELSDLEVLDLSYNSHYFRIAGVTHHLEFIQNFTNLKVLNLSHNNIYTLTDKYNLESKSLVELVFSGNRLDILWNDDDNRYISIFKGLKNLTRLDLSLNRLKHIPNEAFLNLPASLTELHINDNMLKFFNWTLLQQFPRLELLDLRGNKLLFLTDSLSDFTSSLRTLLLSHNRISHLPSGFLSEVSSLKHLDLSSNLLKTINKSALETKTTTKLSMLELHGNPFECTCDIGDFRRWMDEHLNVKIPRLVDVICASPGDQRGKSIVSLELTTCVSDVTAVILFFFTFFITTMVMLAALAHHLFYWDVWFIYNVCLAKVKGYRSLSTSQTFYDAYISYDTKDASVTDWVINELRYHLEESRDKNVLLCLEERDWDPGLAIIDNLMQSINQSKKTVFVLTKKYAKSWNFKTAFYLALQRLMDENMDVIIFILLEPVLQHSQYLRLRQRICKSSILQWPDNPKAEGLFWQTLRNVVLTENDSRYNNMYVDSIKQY
Description: HEK293-Blue-hTLR-8 cells assay (SEAP reporter, R848 stimulation). Type of experiment: cell-based. Conditions: HEK293-Blue-hTLR8 cells, R848, 20 hrs; read-out: HEK/hTLR8 IC50. The method, boiled down: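 HEK293-Blue-hTLR8 cells (NF-κB/AP-1-driven SEAP) in DMEM/10% FBS were treated with serially diluted compound (1% DMSO final) plus R848 for 20 hrs at 37 °C. Supernatant SEAP was measured with QUANTI-Blue after 2 hrs at 37 °C, absorbance 620-655 nm; antagonism seen as reduced reporter.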

Here are results for 11 compounds from patent publication EP3807270B1, “NOVEL HETEROARYL HETEROCYCLYL COMPOUNDS FOR THE TREATMENT OF AUTOIMMUNE DISEASE” (F. Hoffmann-La Roche AG, priority 2018, dated 2019).

`C[C@@H]1CN(c2ccc(C#N)c3ncccc23)C[C@H](CN2CCN(c3cnc4c(c3)CNCC4)C(C)(C)C2)O1` [Example 56, 5-[(2S,6R)-2-[[3,3-dimethyl-4-(5,6,7,8-tetrahydro-1,6-naphthyridin-3-yl)piperazin-1-yl]methyl]-6-methyl-morpholin-4-yl]quinoline-8-carbonitrile]: the IC50 was 12 nM.

For `C[C@@H]1CN(c2ccc(C#N)c3ncccc23)C[C@H](CN2CCC(Nc3ncc4c(n3)CCNC4)C2)O1` (stereo partly drawn) [Example 57, 5-[(2R,6S)-2-methyl-6-[[3-(5,6,7,8-tetrahydropyrido [4,3-d]pyrimidin-2-ylamino)pyrrolidin-1-yl]methyl]morpholin-4-yl] quinoline-8-carbonitrile], the IC50 is 37 nM. Then `COC1CNCc2ccc(N3CCN(C[C@H]4CN(c5ccc(C#N)c6ncccc56)C[C@@H](C)O4)CC3)cc21` (stereo partly drawn) [Example 58, 5-[(2S,6R)-2-[[4-(4-methoxy-1,2,3,4-tetrahydroisoquinolin-6-yl)piperazin-1-yl]methyl]-6-methyl-morpholin-4-yl]quinoline-8-carbonitrile], with 15 nM. For `C[C@@H]1CN(c2ccc(C#N)c3ncccc23)C[C@H](CN2CCN(c3ccc4c(c3)C(O)CN(C)C4)CC2)O1` (stereo partly drawn) [Example 59, 5-[(2S,6R)-2-[[4-(4-hydroxy-2-methyl-3,4-dihydro-1H-isoquinolin-6-yl)piperazin-1-yl]methyl]-6-methyl-morpholin-4-yl]quinoline-8-carbonitrile] the value was 11 nM; for `Cc1nc2c(nc1N1CCN(C[C@H]3CN(c4ccc(C#N)c5ncccc45)C[C@@H](C)O3)CC1)CCNC2` [Example 60, 5-[(2R,6S)-2-methyl-6-[[4-(3-methyl-5,6,7,8-tetrahydropyrido[3,4-b]pyrazin-2-yl)piperazin-1-yl]methyl]morpholin-4-yl]quinoline-8-carbonitrile], 14 nM; for `C[C@@H]1CN(c2ccc(C#N)c3ncccc23)C[C@H](CN2CCN(c3ncnc4c3CNCC4)CC2)O1` [Example 61, 5-[(2R,6S)-2-methyl-6-[[4-(5,6,7,8-tetrahydropyrido[4,3-d]pyrimidin-4-yl)piperazin-1-yl]methyl]morpholin-4-yl]quinoline-8-carbonitrile], 10 nM. For `C[C@@H]1CN(c2ccc(C#N)c3ncccc23)C[C@H](CN2CCN(c3nccc4c3CCNC4)CC2)O1` [Example 62, 5-[(2R,6S)-2-methyl-6-[[4-(5,6,7,8-tetrahydro-2,6-naphthyridin-1-yl)piperazin-1-yl]methyl]morpholin-4-yl]quinoline-8-carbonitrile] the value was 14 nM.

As for `C[C@@H]1CN(c2ccc(C#N)c3ncccc23)C[C@H](CN2CCN(c3ccc4c(n3)CNCC4)CC2)O1` [Example 69, 5-[(2R,6S)-2-methyl-6-[[4-(5,6,7,8-tetrahydro-1,7-naphthyridin-2-yl)piperazin-1-yl]methyl]morpholin-4-yl]quinoline-8-carbonitrile], the IC50 was found to be 5 nM. Then `C[C@@H]1CN(c2ccc(C#N)c3nccnc23)C[C@H](CN2CCN(c3cc4c(cn3)CCNC4)CC2)O1` [Example 80, 8-[(2R,6S)-2-methyl-6-[[4-(5,6,7,8-tetrahydro-2,6-naphthyridin-3-yl)piperazin-1-yl]methyl]morpholin-4-yl]quinoxaline-5-carbonitrile], with 7 nM; and `COc1ccc(N2CCN(C[C@H]3CN(c4ccc(C#N)c5ncccc45)C[C@@H](C)O3)CC2)cc1` [Example R1, 5-[(2S,6R)-2-[[4-(4-methoxyphenyl)piperazin-1-yl]methyl]-6-methyl-morpholin-4-yl]quinoline-8-carbonitrile, reference compound], with 142 nM; and `C[C@@H]1CN(c2ccc(C#N)c3ncccc23)C[C@H](CN2CCN(c3ccc(Cl)cc3)CC2)O1` [Example R2, 5-[(2S,6R)-2-[[4-(4-chlorophenyl)piperazin-1-yl]methyl]-6-methyl-morpholin-4-yl]quinoline-8-carbonitrile, reference compound], with 342 nM.
